Laboratory results taken from patent US6603062B1, “Method for producing transgenic plants with modified 5-aminolevulinic acid biosynthesis, method for identifying 5-aminolevulinic acid synthesis effectors” (Aventis CropScience GmbH, priority 1997, dated 2003).

What was measured:
[1] = molecular target: T1, recombinant Hordeum vulgare GSAAT (Hordeum vulgare, UniProt P18492); test: GSAAT activity test (photometric detection of derivatized 5-aminolevulinic acid); type: biochemical; settings: pH 6.5, 20° C., read-out: concentration leading to a 50% reduction in GSAAT activity
T1 construct: The mature Hordeum vulgare GSAAT was produced recombinantly in Escherichia coli; made in house; host or cells: Escherichia coli TG1, expression plasmid pATE19 co-transformed with pGroESL
T1 sequence (P18492 35-469): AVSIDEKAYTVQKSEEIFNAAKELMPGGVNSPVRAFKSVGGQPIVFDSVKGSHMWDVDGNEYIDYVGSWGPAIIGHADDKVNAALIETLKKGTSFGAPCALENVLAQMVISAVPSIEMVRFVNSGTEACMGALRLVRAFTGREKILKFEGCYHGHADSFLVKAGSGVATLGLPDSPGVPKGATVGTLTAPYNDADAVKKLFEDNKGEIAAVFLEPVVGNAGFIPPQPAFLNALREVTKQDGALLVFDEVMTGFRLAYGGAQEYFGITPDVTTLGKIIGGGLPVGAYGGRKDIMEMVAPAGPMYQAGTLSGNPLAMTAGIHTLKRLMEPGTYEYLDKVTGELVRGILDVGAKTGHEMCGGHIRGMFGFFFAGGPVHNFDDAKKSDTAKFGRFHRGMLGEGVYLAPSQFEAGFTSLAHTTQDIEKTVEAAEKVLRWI
Method: GSAAT activity was detected by a photometric detection of the derivatized reaction product 5-aminolevulinic acid. The activity test was carried out in a 96-well flat-bottom microtiter plate (F form) made of polystyrene.
It was possible to carry out the desired number of individual measurements in parallel in the wells of the microtiter plate. The following information relates in each case to one well of the microtiter plate (MTP).
At a temperature of 20° C., 100 μl of enzyme solution (25 pkat/ml recombinant Hordeum vulgare GSAAT, 250 mM Bis Tris/HCl pH 6.5) and 10 μl of 25% (v/v) dimethyl sulfoxide in water were introduced into the well. […]
Immediately after the enzymatic reaction had started, the mixture was incubated for 30 minutes at 20° C. […] After the incubation had ended, the absorption of the solution was determined immediately at a wavelength of 540 nm with the aid of a microtiter plate photometer.
To determine the enzymatically formed quantity of 5-aminolevulinic acid, the blank value (see below) was first deducted from the absorption of the mixture to be analyzed. The difference between measured value and blank value was used for calculating, with the aid of a calibration series, the concentration of 5-aminolevulinic acid in the reaction mixture at the time immediately prior to addition of the ethyl acetoacetate. […]

Lemna gibba = test: Lemna test; type: in vivo; settings: 20 μM in culture solution
Method: The phytotoxic action of GSAAT inhibitors was also determined in vivo by treating Lemna cultures.
To this end, Lemna gibba was cultured in sterile culture solution (0.4 g/l KNO3, 0.8 g/l CaCl2*2H2O, 0.366 g/l MgSO4*7H2O, 0.2 g/l KH2PO4, 2 ml/l solution I (2.23 g/l MnSO44H2O, 83 mg/l Kl, 2.5 mg/l CoCl2*6H2O, 0.86 g/l ZnSO4*7H2O, 2.5 mg/l CuSO4*5H2O, 0.62 g/l H3BO3, 25 mg/l Na2MoO4*2H2O) and 2 ml/l solution II(14.92 g/l Na-EDTA, 10.92 g/l FeSO4*7H2O)). In each case 3 plants were placed under sterile conditions into the a 100 ml Erlenmeyer flask which was filled with 50 ml culture solution containing the GSAAT inhibitor in a concentration of 20 μM. The culture flasks were illuminated at 25° C. with two 36 W daylight fluorescence tubes at a distance of 70 cm (24-hour light photoperiod). Growth and phenotype of the Lemna plants were observed over 7 days and compared with the growth and the phenotype of Lemna plants which had been grown in culture solution without inhibitor under otherwise identical conditions. It was characteristic of the phytotoxic effect of a GSAAT inhibitor that the newly-formed tissues were chlorotic. When light intensities were high, it was also possible for the plant tissue to become necrotic. Compounds with a rapid action frequently led to complete destruction of the plants after only one day, while the more slowly acting compounds first led to growth depression.

[2] = system: transgenic maize lines with the ALAS gene; test: Tolerance of transgenic maize lines with the ALAS (hemA) gene to the GSAAT inhibitor; type: in vivo; settings: 100 μM; compared with untreated controls on medium without inhibitor
Method: To produce transgenic maize plants which contain an expression cassette for Rhodobacter sphaeroides hemA gene, a transformation was carried out as described in EP-A 0 469 273, with the difference that pALAS3f was employed as the DNA to be transferred. 41 independent maize transformants were obtained. Amongst these lines termed M23T1, M25T1 to M25T13 and M27T1 to M27T27, plants were regenerated as described. The presence of the complete hemA gene was detected in all transgenic plants by means of PCR using the oligodeoxynucleotides ALAS1 and ALAS2 (see Example 1) as PCR primers.
(§1) The tolerance of transgenic lines to 3-amino-2,3-dihydrobenzoic acid is determined in comparison with the nontransgenic original line. To this end, five regenerate plants per line whose size and root system visually corresponds to the above-described seedlings after six days germination are transferred to media without 3-amino-2,3-dihydrobenzoic acid (one plant) and with 100 μM 3-amino-2,3-dihydrobenzoic acid (four plants) and grown on.

GSAAT = molecular target: T2, GSAAT (Hordeum vulgare, UniProt P18492); settings: background, Beale (1990); cited from earlier work
T2 sequence (P18492 35-469): T1 sequence (P18492 35-469)

untransformed maize line = test: Tolerance threshold of the untransformed maize line to the GSAAT inhibitor; type: in vivo; settings: for wet weight of nontransgenic plants: six days after medium change, means of 10 plants without root and seed kernel remains
Method: First, the tolerance threshold of the untransformed maize line over the GSAAT inhibitor 3-amino-2,3-dihydrobenzoic acid was determined. To this end, the maize seeds were surface-sterilized by washing them under sterile conditions first for 1 minute in 70% ethanol, then for 20 minutes in 5% sodium hypochlorite, 0.1% Tween 20 and subsequently six times briefly in sterile water. The seeds were then placed under sterile conditions on Murashige & Skoog medium (micro- and macronutrients, Sigma GmbH #M5524) containing 90 g/l sucrose and 8 g/l agar and grown for six days at room temperature under daylight fluorescent tubes in a 12-hour-light/12-hour-dark photoperiod until the second leaf emerged. At this stage, the plantlets were transferred to fresh medium with various concentrations of 3-amino-2,3-dihydrobenzoic acid.
After the plants had been grown for a further 10 days, the effect of the inhibitor was recorded. […] Six days after the medium was changed, the following wet weights were found for the nontransgenic plants (in each case means of 10 individual plants without root and remains of the seed kernel):
as §1

[3] = 100 μM, after a further 10 days

Row | IC50 [1] [µM] | Structure (SMILES) | plants that had died (Lemna gibba; after 72 hours) | phytotoxic effect on Lemna plants (Lemna gibba; within 48 hours) | phenotype of regenerated plants of most transgenic lines [2] | effect on GSAAT (GSAAT) | wet weight of nontransgenic plants (untransformed maize line; 1 μM in medium) [g] | wet weight of nontransgenic plants (untransformed maize line; 5 μM in medium) [g] | wet weight of nontransgenic plants (untransformed maize line; 10 μM in medium) [g] | wet weight of nontransgenic plants (untransformed maize line; 100 μM in medium) [g] | biomass production (untransformed maize line; [3]) | phenotype of newly-formed tissue (untransformed maize line; [3]) | phenotype of regenerated plants of the nontransgenic line (untransformed maize line; 100 μM, compared with the untreated control) | biomass production (untransformed maize line; concentration under 5 μM, after a further 10 days)
1 | 6 | NNCCCS(=O)(=O)O [compound A, hydrazinopropylsulfonic acid] | over 60% | chloroses and growth depression | – | – | – | – | – | – | – | – | – | –
2 | – | NC1C=CC=C(C(=O)O)C1 (stereo not shown) [3-amino-2,3-dihydrobenzoic acid] | – | – | none of the regenerated plants in the presence of 100 μM 3-amino-2,3-dihydrobenzoic acid shows chloroses or reduced growth | inhibited | 4.15 | 3.82 | 3.12 | 1.53 | markedly reduced | marked chlorosis | marked chlorosis and reduced biomass production | unaltered within the normal variations
